Measurements as given in patent US20230414575A1, “MK2 ACTIVATING COMPOUNDS FOR USE IN TREATING VASCULAR LEAK AND ENDOTHELIAL BARRIER DISORDERS” (Akttyva Therapeutics, Inc., priority 2020, published 2023).
Structures can show the parent of a compound that is named as a salt.

The compounds below were run against T1, MK2 (Rattus norvegicus, UniProt Q80ZF4) (assay: ELISA MK2 cell-based activity assay (phospho-HSP-27), RMVEC cells). Settings: compound 20 μM, 30 minutes, 37° C.
T1 construct: endogenous in cells; host or cells: rat microvascular endothelial cells (RMVEC)
Experimental: The MK2 activator candidates, identified using the artificial intelligence (AI)-assisted docking approach, were tested in activity assays for lead selection against the MK2 target. MK2 activation was assessed using (a) a cell-based assay using rat microvascular endothelial cells (RMVEC) and (b) human cancer skin fibroblast cells (Malme-3M). In both assays, an Enzyme-linked ImmunoSorbent Assay (ELISA) technique was used to measure (HSP-27) phosphorylation (DYC2314-2, R&D Systems). Both cell lines were grown to confluency in a 96-well tissue culture plate and treated at 37° C. for 30 minutes with the test compounds at concentrations of 20 μM. The cells were subsequently lysed with a lysis solution containing 0.5% Triton X-100 and anti-proteolysis agents. The resulting lysates were then loaded onto ELISA plates coated with anti-rat phospho-HSP27. After incubation and washing, the plates were treated with an horseradish peroxidase (HRP)-conjugated anti-phospho-HSP27 secondary antibody and then measured for chemiluminescence. Higher activity compounds, acting on MK2, induced higher levels of HSP-27 phosphorylation, as measured by the ELISA.

T1 sequence (Q80ZF4 1-386): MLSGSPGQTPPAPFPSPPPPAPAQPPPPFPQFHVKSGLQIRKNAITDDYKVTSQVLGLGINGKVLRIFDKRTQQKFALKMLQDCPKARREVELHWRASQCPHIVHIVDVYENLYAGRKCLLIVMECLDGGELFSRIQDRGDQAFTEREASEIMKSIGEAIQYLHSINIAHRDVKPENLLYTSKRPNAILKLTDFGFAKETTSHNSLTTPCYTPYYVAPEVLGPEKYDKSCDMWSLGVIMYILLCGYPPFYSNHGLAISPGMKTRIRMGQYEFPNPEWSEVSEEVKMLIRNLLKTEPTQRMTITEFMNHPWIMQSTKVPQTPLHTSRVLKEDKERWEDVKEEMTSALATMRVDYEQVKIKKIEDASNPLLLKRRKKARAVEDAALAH

Compound	Ratio Compound/control
CC(=O)N1CCN(CCOc2ccc(C3CCN(C4=Nn5c(nnc5C(F)(F)F)CC4)CC3)cc2)CC1 [Compound 44, Azd3514]	0.9
NC(=O)[C@@H](CCC(F)(F)F)N(Cc1ccc(-c2ncon2)cc1F)S(=O)(=O)c1ccc(Cl)cc1 [Compound 115, Avagacestat]	0.8
c1cc(OCCN2CCCCC2)cc(-c2n[nH]c3ccc(-c4nc[nH]n4)cc23)c1 [CC-401 Hydrochloride]	0.9
Cn1cc(-c2ccc(F)c(C(F)(F)F)c2)nc1C1CCN(c2ncnc3[nH]ncc23)CC1 [Compound 30, Ly-2584702]	0.3
CC(C)c1cc(CNc2nc(Nc3cc(C4CC4)[nH]n3)cc(N3CCN(C)CC3)n2)on1 [Compound 43, Xl-228]	0.4
Cc1nc2n(c(=O)c1CCN1CCC(c3noc4cc(F)ccc34)CC1)CCCC2O (stereo not drawn) [Compound 20, Paliperidone]	1.1
Cc1nc(Nc2[nH]nc3c2CN(C(=O)N[C@H](CN(C)C)c2ccccc2)C3(C)C)c2sccc2n1 [Compound 39, Pf-03758309]	1.0
CCS(=O)(=O)c1cccc(-c2cc(C(=O)NC3CCN(C)CC3)c(C)c3[nH]c4ncc(C)cc4c23)c1 [Compound 46, Tak-901]	0.2
CCn1cc(-c2ccnc3[nH]c(-c4cccc(CN(C)C)c4)cc23)c(-c2ccc(NC(=O)N(C)C)cc2)n1 [Compound 28, Gsk-1070916]	0.2
Cc1c(NC(=O)OC[C@@H]2COCCN2)cn2ncnc(Nc3ccc4c(cnn4Cc4cccc(F)c4)c3)c12 [Compound 49, Ac-480]	1.3
Cc1ccccc1-c1cc(N2CCN(C)CC2)ncc1N(C)C(=O)C(C)(C)c1cc(C(F)(F)F)cc(C(F)(F)F)c1 [Compound 9, Netupitant]	0.7

Now from value to compound:

Ratio Compound/control	Compound
0.3	Cc1cc(Nc2cc(N3CCN(C)CC3)nc(/C=C/c3ccccc3)n2)n[nH]1 [Compound 56, Enmd-2076]
0.9	COCCOc1ccc(N2CCN(CCn3ncc4c3nc(N)n3nc(-c5ccco5)nc43)CC2)cc1 [Compound 106, Preladenant]
1.3	CNCc1ccc(C)c(NC(=O)c2ccc(Nc3nc(-c4ccccc4)c4ccccc4n3)cc2)c1 [Compound 57, Bms - 833923]
1.3	O=C(Nc1cccc(C2=NCCN2)c1)Nc1cccc(C2=NCCN2)c1 [Imidocarb dipropionate]
1.3	N=C(N)c1ccc2cc(OC(=O)c3ccc(N=C(N)N)cc3)ccc2c1 [Nafamostat Mesylate]
0.7	Cl.Cl.Cl.O[C@@H](COc1cccc2ncccc12)CN1CCN([C@@H]2c3ccccc3[C@@H]3[C@H](c4ccccc42)C3(F)F)CC1 [Zosuquidar (LY335979) 3HCl]
1.1	Cl.Cl.OCCN1CCN(CCC=C2c3ccccc3Sc3ccc(C(F)(F)F)cc32)CC1 (mixture of isomers) [Flupenthixol dihydrochloride]
1.1	Delavirdine (mesylate)
2.2	O=C1[C@H]2CCCC[C@H]2C(=O)N1CCCCN1CCN(c2nsc3ccccc23)CC1 [Perospirone hydrochloride]
1.3	Cc1oncc1C(=O)Nc1ccc(C(F)(F)F)cc1 [Compound 72, Leflunomide]

Same assay, conditions: compound 20 μM, 30 minutes, 37° C., phospho-HSP27 ELISA

Compound	Average Response HSP27 [pg/mL]
CC(=O)N1CCN(CCOc2ccc(C3CCN(C4=Nn5c(nnc5C(F)(F)F)CC4)CC3)cc2)CC1 [Compound 44, Azd3514]	5.9
NC(=O)[C@@H](CCC(F)(F)F)N(Cc1ccc(-c2ncon2)cc1F)S(=O)(=O)c1ccc(Cl)cc1 [Compound 115, Avagacestat]	5.7
c1cc(OCCN2CCCCC2)cc(-c2n[nH]c3ccc(-c4nc[nH]n4)cc23)c1 [CC-401 Hydrochloride]	6.3
Cn1cc(-c2ccc(F)c(C(F)(F)F)c2)nc1C1CCN(c2ncnc3[nH]ncc23)CC1 [Compound 30, Ly-2584702]	0.0
CC(C)c1cc(CNc2nc(Nc3cc(C4CC4)[nH]n3)cc(N3CCN(C)CC3)n2)on1 [Compound 43, Xl-228]	5.7
Cc1nc2n(c(=O)c1CCN1CCC(c3noc4cc(F)ccc34)CC1)CCCC2O (stereo not drawn) [Compound 20, Paliperidone]	4.3
Cc1nc(Nc2[nH]nc3c2CN(C(=O)N[C@H](CN(C)C)c2ccccc2)C3(C)C)c2sccc2n1 [Compound 39, Pf-03758309]	4.8
CCS(=O)(=O)c1cccc(-c2cc(C(=O)NC3CCN(C)CC3)c(C)c3[nH]c4ncc(C)cc4c23)c1 [Compound 46, Tak-901]	-0.2
CCn1cc(-c2ccnc3[nH]c(-c4cccc(CN(C)C)c4)cc23)c(-c2ccc(NC(=O)N(C)C)cc2)n1 [Compound 28, Gsk-1070916]	0.9
Cc1c(NC(=O)OC[C@@H]2COCCN2)cn2ncnc(Nc3ccc4c(cnn4Cc4cccc(F)c4)c3)c12 [Compound 49, Ac-480]	12.1
Cc1ccccc1-c1cc(N2CCN(C)CC2)ncc1N(C)C(=O)C(C)(C)c1cc(C(F)(F)F)cc(C(F)(F)F)c1 [Compound 9, Netupitant]	2.7

Further lines, results first:

Average Response HSP27 [pg/mL]	Compound
4.6	Cc1cc(Nc2cc(N3CCN(C)CC3)nc(/C=C/c3ccccc3)n2)n[nH]1 [Compound 56, Enmd-2076]
4.2	COCCOc1ccc(N2CCN(CCn3ncc4c3nc(N)n3nc(-c5ccco5)nc43)CC2)cc1 [Compound 106, Preladenant]
8.8	CNCc1ccc(C)c(NC(=O)c2ccc(Nc3nc(-c4ccccc4)c4ccccc4n3)cc2)c1 [Compound 57, Bms - 833923]
11.7	O=C(Nc1cccc(C2=NCCN2)c1)Nc1cccc(C2=NCCN2)c1 [Imidocarb dipropionate]
11.7	N=C(N)c1ccc2cc(OC(=O)c3ccc(N=C(N)N)cc3)ccc2c1 [Nafamostat Mesylate]
11.8	Cl.Cl.Cl.O[C@@H](COc1cccc2ncccc12)CN1CCN([C@@H]2c3ccccc3[C@@H]3[C@H](c4ccccc42)C3(F)F)CC1 [Zosuquidar (LY335979) 3HCl]
10.4	Cl.Cl.OCCN1CCN(CCC=C2c3ccccc3Sc3ccc(C(F)(F)F)cc32)CC1 (mixture of isomers) [Flupenthixol dihydrochloride]
18.4	Delavirdine (mesylate)
43.2	O=C1[C@H]2CCCC[C@H]2C(=O)N1CCCCN1CCN(c2nsc3ccccc23)CC1 [Perospirone hydrochloride]
5.2	Cc1oncc1C(=O)Nc1ccc(C(F)(F)F)cc1 [Compound 72, Leflunomide]
